{
  "source": "patent US6929012B2",
  "about": "“Process for the isolation of a major harmful oxidant from cigarette smoke” (Council of Scientific and Industrial Research, priority 2001, dated 2005)",
  "test_system": "cs-oxidant-induced albumin oxidation",
  "assay": "Protection of cs-oxidant-induced albumin oxidation by chemical agents",
  "assay_type": "biochemical, bovine",
  "conditions": "for inhibition of BSA oxidation: concentration ranging between 500 μM and 1 mM",
  "experimental": "The incubation system contained 1 mg BSA and 50 μl of cs solution or its equivalent amounts obtained at different stages of purification in a final volume of 200 μl of 50 mM potassium phosphate buffer, pH 7.4. The incubation was carried out at 37° C. for 1 hour. Protein carbonyl was measured by reaction with 2,4-dinitrophenyl hydrazine (DNPH) following the method of Levine et al (Methods Enzymol. 186: 464-478, 1990) similar to that done before in our laboratory (Panda et al., Free Radic. Biol. & Med. 27: 1064-1079, 1999). […] To this washed pellet was then added 500 μl of 10 mM DNPH solution in 2M HCl and incubated at 37° C. for 1 h with occasional vortexing. Thereafter, the protein was again precipitated with 500 μl of cold 20% trichloroacetic acid solution and the pellet was first washed with 500 μl of 10% trichloroacetic acid solution followed by three successive washes with 1 ml of a mixture of ethanol: ethyl acetate (1:1, v/v). Finally, the washed precipitate was dissolved in 1 ml of 6M guanidium hydrochloride (pH 2.3) and the absorbance was measured at 390 nm using a double beam Hitachi spectrophotometer model U 3020 against a reagent blank of 2M HCl. The results were expressed as n moles of phenylhydrazones formed per milligram protein using a molar extinction coefficient of 22,000.\nThe chemical compounds/agents include, besides ascorbic acid, tartaric acid, citric acid, oxalic cid, glutathione, tea extract and individual components of tea (Table. 4).\nThe incubation system and carbonyl estimation are described in the text.",
  "data": [
    {"molecule": "O=C1O[C@H]([C@@H](O)CO)C(O)=C1O", "note": "[Ascorbic acid]", "values": [
      {"measurement": "% Protection", "setting": "agent 100 μM", "result": 76, "unit": "%"},
      {"measurement": "% Protection", "setting": "agent 100 μM, listed as ascorbic acid", "result": "up to 76%"}
    ]},
    {"molecule": "Catechin", "values": [
      {"measurement": "% Protection", "setting": "agent 750 μg", "result": 54, "unit": "%"},
      {"measurement": "% Protection", "setting": "agent 750 μg, listed as catechin", "result": "up to 54%"}
    ]},
    {"molecule": "O=C(O)CC(O)(CC(=O)O)C(=O)O", "note": "[Citric acid]", "values": [
      {"measurement": "% Protection", "setting": "agent 500 μM", "result": 67, "unit": "%"},
      {"measurement": "% Protection", "setting": "agent 1 mM", "result": 75, "unit": "%"},
      {"measurement": "inhibition of BSA oxidation", "result": "up to 75%"}
    ]},
    {"molecule": "O=C(O)CCC(=O)O", "note": "[Succinic acid]", "values": [
      {"measurement": "% Protection", "setting": "agent 1 μM (so in the source)", "result": 60, "unit": "%"},
      {"measurement": "% Protection", "setting": "agent 1 mM", "result": 60, "unit": "%"},
      {"measurement": "% Protection", "setting": "agent 1 mM, listed as succinic acid", "result": "up to 60%"}
    ]},
    {"molecule": "N[C@@H](Cc1c[nH]cn1)C(=O)O", "note": "[Histidine]", "values": [
      {"measurement": "% Protection", "setting": "agent 1 mM", "result": 67, "unit": "%"},
      {"measurement": "% Protection", "setting": "agent 1 mM, listed as histidine", "result": "up to 67%"}
    ]},
    {"molecule": "N[C@@H](CCC(=O)N[C@@H](CS)C(=O)NCC(=O)O)C(=O)O", "note": "[Glutathione]", "values": [
      {"measurement": "% Protection", "setting": "agent 1 mM", "result": 37, "unit": "%"},
      {"measurement": "% Protection", "setting": "agent 1 mM, listed as glutanthione", "result": "up to 37%"}
    ]},
    {"molecule": "Oc1cc(O)c2c(c1)O[C@H](c1cc(O)c(O)c(O)c1)[C@H](O)C2", "note": "[Epigallocatechin]", "values": [
      {"measurement": "% Protection", "setting": "agent 140 μg", "result": 95, "unit": "%"},
      {"measurement": "% Protection", "setting": "agent 140 μg, listed as epigallocatechin", "result": "up to 95%"}
    ]},
    {"molecule": "NCCCC[C@H](N)C(=O)O", "note": "[Lysine]", "values": [
      {"measurement": "% Protection", "setting": "agent 1 mM", "result": 35, "unit": "%"},
      {"measurement": "% Protection", "setting": "agent 1 mM, listed as lysine", "result": "up to 35%"}
    ]},
    {"molecule": "O=C(O)C(=O)O", "note": "[Oxalic acid]", "values": [
      {"measurement": "% Protection", "setting": "agent 500 μM", "result": 53, "unit": "%"},
      {"measurement": "% Protection", "setting": "agent 500 μM, listed as oxalic acid", "result": "up to 53%"}
    ]},
    {"molecule": "O=C(O)C(O)C(O)C(=O)O", "note": "(centres unmarked) [Tartaric acid]", "values": [
      {"measurement": "% Protection", "setting": "agent 500 μM", "result": 67, "unit": "%"},
      {"measurement": "% Protection", "setting": "agent 1 mM", "result": 75, "unit": "%"},
      {"measurement": "inhibition of BSA oxidation", "result": "up to 75%"}
    ]}
  ]
}
